# Activity calls are given as the source filed them. The calls are words filed in the database; no cut-off is given here.
# Columns and labels:
# [1] = Induction of alkylation of 5'-FAM-labelled scrambled duplex oligonucleotide DNA (unknown origin) at guanine residues G1 to G4 after 24 hrs by sequencing gel analysis
# Escherichia coli [2] = assay: Induction of Escherichia coli supercoiled pBR322 DNA cleavage assessed as formation of linear form of DNA at 0.5 to 50 uM after 24 hrs at 25 degC by agarose gel electrophoresis
# Escherichia coli [3] = assay: Induction of Escherichia coli supercoiled pBR322 DNA cleavage assessed as formation of open circular form of DNA after 24 hrs at 25 degC by agarose gel electrophoresis
# [4] = Induction of alkylation of 5'-FAM-labelled scrambled duplex oligonucleotide DNA (unknown origin) at guanine residues G1 to G4 at 5 to 50 uM after 24 hrs by sequencing gel analysis
# [5] = Induction of alkylation of 5'-FAM-labelled scrambled duplex oligonucleotide DNA (unknown origin) at guanine residues G1 to G4 at 50 uM after 24 hrs by sequencing gel analysis
# Escherichia coli [6] = assay: Induction of Escherichia coli supercoiled pBR322 DNA cleavage at 50 uM after 24 hrs at 25 degC by agarose gel electrophoresis
smiles,measurement,setting,value
COc1ccc(OC(=O)[C@H](CCCCN2CC(Cl)CC(C)(C)C2)N2CC(Cl)CC(C)(C)C2)c2ccccc12 (some centres not stated),Activity,[1],Dose-dependent effect
CC1(C)CC(Cl)CN(CCCC[C@@H](C(=O)Oc2cccc3ccccc23)N2CC(Cl)CC(C)(C)C2)C1 (some centres not stated),Activity,[1],Dose-dependent effect
CC1(C)CC(Cl)CN(CCCC[C@@H](C(=O)OCc2ccc3c(c2)C(=O)c2ccccc2C3=O)N2CC(Cl)CC(C)(C)C2)C1 (some centres not stated),Activity,Escherichia coli [2],inactive
same,Activity,Escherichia coli [3],Dose-dependent effect
same,Activity,[4],Active
O=C(O)CCCc1ccc(N(CCCl)CCCl)cc1,Activity,[5],inactive
same,Activity,Escherichia coli [6],inactive

# — ChEMBL document CHEMBL3621105, “Synthesis and evaluation of a bis-3-chloropiperidine derivative incorporating an anthraquinone pharmacophore” (Bioorg Med Chem Lett, 2015)
